The text below walks through data of US20250129083A1, “IMIDAZOTETRAZINE COMPOUNDS AND TREATMENT OF TMZ-RESISTANT CANCERS” (THE BOARD OF TRUSTEES OF THE UNIVERSITY OF ILLINOIS, priority 2022, published 2025).

Series [1] relates to D341 Med medulloblastoma cell line. Briefly: Cell viability assay (Alamar Blue, 7 days), D341 Med. The format is cell-based. The settings on record: Homo sapiens, 168 h, MGMT (+)/MMR (−), 7 day. How it is done: (§1) Cell Culture and Reagents. All cell lines were grown in a 37° C., 5% CO2, humidified environment, in media containing 1% penicillin/streptomycin. Stable cell line generation of GL261 MGMT+ was purchased from Creative Biogene. Cell culture conditions are as follows: cell lines U87, T98G, and RKO were grown in EMEM with 10% FBS. D54, GL261, GL261 MGMT+, and U118MG cell lines were grown in DMEM with 10% FBS. HCT116 cells were grown in RMPI with 10% FBS. D341 Med cells were grown in EMEM with 20% FBS. Temozolomide (TMZ) was purchased from AK Scientific. TMZ analogues were synthesized as described below. Compounds were dissolved in DMSO (1% final concentration, Fisher Chemical) for cell culture studies.
(§2) Cell Viability Assays. Cells were harvested, seeded in a 96-well plate and allowed to adhere. After three hours, compound was added to each well in DMSO (1% final concentration). Cells were incubated for seven days (unless otherwise noted) before viability was assessed by the Alamar Blue assay. Raptinal (20 μM) was used as a dead control.
(In general: Alamar Blue is a resazurin reagent that responds to reducing activity.)

The subject of series [2] is HCT116 cells. Briefly: Cell viability assay (Alamar Blue, 7 days), HCT116. The settings on record: Homo sapiens, HCT-116, 168 h. Type of series: cell-based. How it is done:
as §1, §2

Series [3] relates to U87 cells. Briefly: Killing kinetics study. The format is cell-based, human. How it is done:
(§3) FIG. 2A-F. (A) 7 day IC50 values (M) of compound 10 and CPZ in an expanded panel of GBM cell lines. Cell viability was assessed via the Alamar Blue assay, n≥3, error is SEM. (B-E) 7 day dose-response curves of TMZ and CPZ in cell lines with variable MGMT and MMR status. Error is SEM, n≥3. (F) Killing kinetics of CPZ compared to TMZ in the U87 cell line. Cells were treated with compound once and viability was assessed every 24 hours via Alamar Blue assay. Error is SEM, n≥2.
Killing Kinetics Study. U87 cells were seeded in seven 96 well plates starting at 19,200 cells/well (for 24 hour time point) and serially diluted by two-fold for each subsequent 24 hour time point. At each time point, cell viability was assessed via Alamar Blue assay.

A short description of series [4]: Solubility in IV formulations. Type of series: physicochemical. The settings on record: for Solubility in 20/80 DMSO/PBS / Solubility in 15/7/5/73 DMSO/NMP/T20/20% SPE-βCD / Solubility in 15/10/75 DMSO/NMP/20% SPE-βCD: IV formulation; for Solubility in 20/80 DMSO/PBS: 5 mg/mL solution for 100 μL injection; for Solubility in 15/7/5/73 DMSO/NMP/T20/20% SPE-βCD / Solubility in 15/10/75 DMSO/NMP/20% SPE-βCD: 6.6 mg/mL solution for 200 μL injection.

Series [5] can be described thus: in vivo. Particulars: CD-1 IGS, mouse, brain and serum, iv, 25 mg/kg.
Protocol: Biodistribution and Toxicity Studies. […] Brain tissue and blood were collected from each mouse and immediately acidified to prevent prodrug degradation. The concentration of each compound in the serum (FIG. 4A) and brain (FIG. 4B) were quantified by LC-MS/MS.
CD-1 IGS mice were administered compound in 5% DMSO, 10% Tween-20, and 85% SPE-PCD in sterile water (30% w/v) at 25 mg/kg via lateral tail vein injection. Fifteen minutes post injection, mice were sacrificed and blood was collected by lacerating the right auricle with iris scissors. An 18 gauge angiocatheter was inserted through the left ventricle, and all residual circulatory volume was removed by perfusing 0.9% saline solution via an analog peristaltic pump. Blood samples were immediately centrifuged at 13,000 rcf for five minutes and the supernatant collected and acidified with 8.5% aqueous H3PO4. Brains were harvested from the cranial vault, acidified with 0.3% aqueous H3PO4 and flash frozen. Homogenized brain samples were centrifuged twice at 13,000 rcf for ten minutes and supernatant and tissue debris were separated. The resultant supernatant was analyzed, along with plasma, by LC-MS/MS to determine compound concentrations.
The subject of series [6] is expanded panel of GBM cell lines with or without MGMT expression. Briefly: Cell viability in expanded panel of GBM cell lines. The format is cell-based. Particulars: for IC50: 168 h, 7 day. How it is done: FIG. 1A-C. Selection and evaluation of MGMT-independent imidazotetrazines. (A) IC50 values (M, 7 days) of TMZ and compound 10 in an expanded panel of GBM cell lines. Cell viability was assessed via the Alamar Blue assay, n≥3, error is SEM. (B) Hydrolytic stability of TMZ at pH 7, 7.4, and 8. Percentage of prodrug remaining was quantified by HPLC, n≥2. (C) Hydrolytic stability of compound 10 at pH 7, 7.4, and 8. Percentage of prodrug remaining was quantified by HPLC, n≥2.
as §3, §2

For series [7], the system named is genomic DNA of A172 cells. Briefly: Quantitation of O6-guanine DNA adducts in cells, A172. The format is cell-based. The settings on record: MGMT-negative; LC-MS/MS. How it is done: Importantly, because CPZ was designed to release a different active species than TMZ, the alkylation pattern in a cellular context is likely different. Therefore, to assess if alkylation still occurs with CPZ, a DNA alkylation assay was performed. GL261 cells were treated with 100, 300, or 500 μM TMZ or CPZ for 8 hours after which the cells were harvested and genomic DNA was extracted and subsequently hydrolyzed to constituent deoxyribonucleosides. LC-MS/MS analysis was employed to quantify the amount of O^6-methyl-2′-deoxyguanosine (O^6-Me-dG) or O^6-propargylated-2′-O^6-deoxyguanosine (O^6-Prop-dG) in each sample.
Quantitation of O^6-guanine DNA Adducts in Cells. GL261, A172, or D54 cells were plated at 1×10^6 c/w in a 6-well plate before they were treated with compound at the indicated concentration (1% final concentration DMSO). After incubation for the indicated time, the cells were harvested and pelleted. Genomic DNA was extracted using the DNeasy Blood & Tissue Kit (Qiagen, ID: 69504). DNA was then precipitated using the following procedure: 1/10 v/v […] sodium acetate (pH 5.2) and 2.5× v/v ethanol was added to each sample which was then kept at −80° C. for 1 h. […] Hydrolyzed samples were then submitted for LC-MS/MS quantitation along with a synthetic standard. Samples were analyzed with a 5500 QTRAP LC/MS/MS system (AB Sciex) with a 1200 series HPLC system (Agilent).

Series [8] in a line: Assessment of hematological toxicity. The format is in vivo. The text has this: Arguably the most important question when designing an alkylating agent able to evade MGMT-mediated resistance is the resultant effect on hematological toxicity. MGMT operates as a systemic protectant against alkylating xenobiotics. […] Therefore, an MGMT-independent alkylating agent like CPZ could render off-target cells vulnerable to irreparable DNA alkylation and result in a similar degree of toxicity. We hypothesized that the increased BBB permeability of CPZ would divert enough of the drug to the brain such that it could be tolerated at a therapeutically useful dose. The hematological effects of a single dose of TMZ or CPZ were compared head-to-head in vivo. Mice were treated with 125 mg/kg TMZ or CPZ intravenously; this dose was selected because 125 mg/kg TMZ is known to induce nonlethal toxicity in mice. After 7 days, the mice were sacrificed and complete blood counts were obtained. […] Additionally, the maximum tolerated dose (MTD) of CPZ was determined to be 66 mg/kg when dosed intraperitoneally (IP), once-per-day over five days. This matches the reported MTD of TMZ at the same schedule (˜66 mg/kg).
Assessment of Hematological Toxicity. Male CD-1 IGS mice (n≥3 mice/group) were administered a single dose of 125 mg/kg compound intravenously. Imidazotetrazines were formulated with DMSO, Tween-20, and 30% (w/v) SBE-PCD in sterile water immediately prior to injection. […]

Where [9] appears, read: MGMT (−) MMR (−), 7 days, read-out: Activity, HCT116.
[10] abbreviates: MGMT (−)/MMR (−), 7 day, read-out: IC50, HCT116.

As a reminder, the Kp is tissue or fluid exposure divided by exposure in the circulation.

Structures are written as SMILES. Where two headings read alike, the source gives them in different places.

Turning to `C#CCn1nnc2c(Cl)ncn2c1=O` [CPZ, 8-chloro-3-(prop-2-yn-1-yl)imidazo[5,1-d][1,2,3,5]tetrazin-4(3H)-one], the IC50 in series [1] was 8 µM; in series [2] (setting [9]) it was 14 ± 16 µM; in series [2] (setting [10]) it was 14 µM; in series [6] (read-out: Average IC50 in MGMT (+) cell lines), 22 µM; in series [6] (read-out: Average IC50 in MGMT (−) cell lines), 16 µM. The “Time to near peak threshold of cell death” value in series [3] (treated once, viability every 24 hours) is at most 72 h. Also, the “Solubility for IV administration” value in series [4] is “insufficient solubility for IV administration”. Also, in series [4], the “Solubility in 20/80 DMSO/PBS” value is “Insoluble”. Besides, the “Solubility in 15/7/5/73 DMSO/NMP/T20/20% SPE-βCD” value in series [4] is given as “Insoluble”. Further, in series [4], the “Solubility in 15/10/75 DMSO/NMP/20% SPE-βCD” value is recorded as “Insoluble”. In series [5], this compound registered a Kp at 15 min of 1.2 ± 0.2. Moreover, the “O6-dG alkylation adducts, A172” value in series [7] is recorded as “did not harbor measurable levels of the propargyl adduct”. Moreover, the “Other hematological symptoms such as thrombocytopenia” value in series [8] (mouse, in vivo, iv, 125 mg/kg) is on record as “did not give rise to other hematological symptoms such as thrombocytopenia”.
`Cn1nnc2c(C(N)=O)ncn2c1=O` [TMZ, temozolomide, reference compound]: the IC50 was 460 µM in series [1], 840 ± 30 µM in series [2] (setting [9]) and above 800 µM in series [2] (setting [10]). Also, the “Time to induce cell death in culture” value in series [3] (at 100 μM) was in the range of 5 to 10 days. The “Solubility in 20/80 DMSO/PBS” value in series [4] is listed as “Soluble*”. For the same compound, in series [4], the “Solubility in 15/7/5/73 DMSO/NMP/T20/20% SPE-βCD” value was “Soluble”. Besides, the “Solubility in 15/10/75 DMSO/NMP/20% SPE-βCD” value in series [4] is listed as “Soluble”. This compound yielded a Kp at 15 min in series [5] of 0.08 ± 0.01. For the same compound, in series [6] (expanded GBM panel), the “Difference in IC50 values between MGMT-negative and positive cell lines” value is above 6 fold. Also, the “O6-dG alkylation adducts, A172” value in series [7] is recorded as “dose-dependent increase in methyl adducts”. The “White blood cell, lymphocyte, and neutrophil counts” value in series [8] (mice, single 125 mg/kg IV dose, 7 days) is “depletions in white blood cells, lymphocytes, and neutrophils”.
